According to patent US20060122275A1, “Agentfor reducing side effects of diclofenac” (priority 2002, published 2006):

Key:
IP receptor = IP receptor (Homo sapiens, UniProt P43119); settings: stated in words, no test described; cited from earlier work
EP1 receptor = target: T1, EP1 receptor (Homo sapiens, UniProt P34995); settings: stated in words, no test described; cited from earlier work
T1 sequence (P34995 1-402): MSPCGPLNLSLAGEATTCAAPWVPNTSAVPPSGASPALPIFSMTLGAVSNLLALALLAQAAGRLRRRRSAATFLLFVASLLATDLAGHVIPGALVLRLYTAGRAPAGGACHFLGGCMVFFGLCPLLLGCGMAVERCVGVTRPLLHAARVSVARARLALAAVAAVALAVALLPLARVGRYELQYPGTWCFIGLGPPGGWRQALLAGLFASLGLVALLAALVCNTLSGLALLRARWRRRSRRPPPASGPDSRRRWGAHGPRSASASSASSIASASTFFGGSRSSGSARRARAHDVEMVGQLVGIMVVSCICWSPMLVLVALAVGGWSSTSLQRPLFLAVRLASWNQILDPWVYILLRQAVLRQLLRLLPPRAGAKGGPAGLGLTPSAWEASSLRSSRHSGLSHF

EP3 receptor = target: T2, EP3 receptor (Homo sapiens, UniProt P43115); settings: stated in words, no test described; cited from earlier work
T2 sequence (P43115 1-390): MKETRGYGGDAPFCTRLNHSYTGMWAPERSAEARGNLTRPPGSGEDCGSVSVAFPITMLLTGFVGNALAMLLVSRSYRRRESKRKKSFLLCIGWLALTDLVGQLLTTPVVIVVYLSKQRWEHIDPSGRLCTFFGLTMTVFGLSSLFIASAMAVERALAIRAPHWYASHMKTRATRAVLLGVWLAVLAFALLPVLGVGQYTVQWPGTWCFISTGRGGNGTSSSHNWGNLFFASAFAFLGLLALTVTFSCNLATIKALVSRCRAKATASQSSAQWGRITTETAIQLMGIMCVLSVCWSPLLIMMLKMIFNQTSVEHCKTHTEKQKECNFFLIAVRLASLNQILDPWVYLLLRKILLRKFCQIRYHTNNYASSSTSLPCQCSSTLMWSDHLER

EP4 receptor = EP4 receptor (Homo sapiens, UniProt P35408); settings: stated in words, no test described; cited from earlier work
EP4 receptor, sequence (P35408 whole entry): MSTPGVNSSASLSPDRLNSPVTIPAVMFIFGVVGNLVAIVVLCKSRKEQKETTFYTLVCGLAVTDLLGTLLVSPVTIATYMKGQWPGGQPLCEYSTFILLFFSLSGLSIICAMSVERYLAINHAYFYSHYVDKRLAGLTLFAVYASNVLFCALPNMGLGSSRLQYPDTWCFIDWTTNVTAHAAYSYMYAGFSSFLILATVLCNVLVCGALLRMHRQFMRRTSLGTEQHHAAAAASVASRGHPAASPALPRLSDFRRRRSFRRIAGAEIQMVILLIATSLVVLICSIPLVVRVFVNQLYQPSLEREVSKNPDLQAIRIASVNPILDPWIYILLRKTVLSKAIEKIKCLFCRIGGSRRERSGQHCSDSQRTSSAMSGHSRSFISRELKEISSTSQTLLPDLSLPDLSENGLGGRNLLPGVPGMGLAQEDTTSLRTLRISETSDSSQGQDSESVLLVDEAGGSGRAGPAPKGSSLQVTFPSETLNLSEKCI

[1] = system: Mycobacterium butyricum-induced inflammation, squeaking reaction; test: Analgesic effect in inflammation model (squeaking reaction); format: in vivo, Lew/Crj line male rats; settings: OU administered vs OU un-administered group
Method: After measuring body weight of Lew/Crj line male rats, Mycobacterium butyricum cells suspended in liquid paraffin was administered by intracutaneous injection into the sole of left-side hind leg of each animal, under ether anesthesia at a dose of 0.1 ml/animal, thereby inducing inflammation. Also, this day was used as the 1st day of the inflammation induction treatment. […] Also, they were fasted for 16 to 24 hours under free water taking from the previous day of the measurement. […] A rat which was squeaking reaction-negative once or more by the 4 times of judgment after the sample liquid administration was judged analgesic effect-positive, and efficacy ratio (the number of animals having analgesic effect/the number of tested animals) was calculated. In addition, ulcer inhibition ratio was calculated in the same manner as described in (1).

[2] = system: glycerol-induced nephropathy; test: Effect of ornoprostil on glycerol-induced nephropathy; format: in vivo, SPF/Crj line male rats; settings: serum 48 hours after glycerol, rats
Method: SPF/Crj line male rats (9 week-old) were measured for their body weight and then divided into groups in such a manner that average of body weights of respective groups became almost uniform. A 50% glycerol solution (medium: physiological saline) (10 ml/kg) was administered by subcutaneous injection to each rat which had been abstained from water for 48 hours (±2 hours) but under feeding, and about 1.5 ml of blood was collected 48 hours thereafter from jugular vein under ether anesthesia. […] Water was provided 2 hours after the glycerol administration. The thus collected blood was centrifuged (about 4° C., 3,000 rpm, 15 minutes) to obtain serum. The thus obtained serum was subjected to the measurement of […] (to be referred to as UN) (urease-G1DH method) and creatinine (to be referred to as CRE) (creatininase-F-DAOS method) using a biochemical automatic analyzer (AU 400 (trade name), Olympus Optical).

acid secretion = settings: stated in words, no test described; cited from earlier work
[3] = system: gastrointestinal mucous membrane; settings: stated in words, no test described; cited from earlier work
[4] = GC (subcutaneous) + OU (3 μg) oral
[5] = GC (subcutaneous) + OU (10 μg) oral

IP receptor, sequence (P43119 whole entry): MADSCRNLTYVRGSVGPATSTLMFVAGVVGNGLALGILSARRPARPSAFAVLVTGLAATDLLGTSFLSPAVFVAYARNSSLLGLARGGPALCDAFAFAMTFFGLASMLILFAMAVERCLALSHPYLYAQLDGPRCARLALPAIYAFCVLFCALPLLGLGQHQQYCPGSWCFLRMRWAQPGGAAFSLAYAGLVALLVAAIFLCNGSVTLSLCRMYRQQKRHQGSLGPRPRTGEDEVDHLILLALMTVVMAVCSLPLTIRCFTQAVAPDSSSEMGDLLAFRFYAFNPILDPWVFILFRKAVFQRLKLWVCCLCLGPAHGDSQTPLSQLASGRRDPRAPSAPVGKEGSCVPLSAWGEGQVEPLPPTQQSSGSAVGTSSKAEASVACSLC

| SMILES | Affinity for IP receptor (IP receptor) | Affinity for EP1 receptor (EP1 receptor) | Affinity for EP3 receptor (EP3 receptor) | Affinity for EP4 receptor (EP4 receptor) | Influence of OU administration upon the analgesic effect of NSAID [1] | CRE [2, 4] [mg/dL] | UN [2, 4] [mg/dL] | CRE [2, 5] [mg/dL] | UN [2, 5] [mg/dL] | Acid secretion inhibitory activity (acid secretion) | Site protection activity [3] |
| --- | --- | --- | --- | --- | --- | --- | --- | --- | --- | --- | --- |
| CCCCC(C)(O)C/C=C/[C@H]1[C@H](O)CC(=O)[C@@H]1CCCCCCC(=O)O (mixture of isomers) [misoprostol active body] | hardly has affinity | weak | strong | strong | – | – | – | – | – | – | – |
| CCCC[C@H](C)C[C@H](O)/C=C/[C@H]1[C@H](O)CC(=O)[C@@H]1CC(=O)CCCCC(=O)OC [ornoprostil, 17S,20-dimethyl-6-oxo-prostaglandin E1 methyl ester] | – | – | – | – | did not exert influence | 1.38 | 89.7 | 1.03 | 79.9 | weak | strong |
